The source of these data is article PMC6538953, “Metal Ions Activate the Human Taste Receptor TAS2R7” (Chemical Senses, 2019).

Numbering of substitutions follows the chain as printed. Read-outs that look alike come from different tables or passages of the source.

For series [1], the target named is T1, human TAS2R7 E264^7.32K mutant (Homo sapiens, UniProt Q9NYW3, E264K).
T1 construct: signal peptide: first 45 amino acid residues of rat somatostatin receptor 3 (N); expressed in transfected cells; host or cells: HEK293 PEAKrapid (ATCC CRL-2828), transient, co-transfected with Gα16-gust44
T1 sequence (Q9NYW3 1-318 E264K): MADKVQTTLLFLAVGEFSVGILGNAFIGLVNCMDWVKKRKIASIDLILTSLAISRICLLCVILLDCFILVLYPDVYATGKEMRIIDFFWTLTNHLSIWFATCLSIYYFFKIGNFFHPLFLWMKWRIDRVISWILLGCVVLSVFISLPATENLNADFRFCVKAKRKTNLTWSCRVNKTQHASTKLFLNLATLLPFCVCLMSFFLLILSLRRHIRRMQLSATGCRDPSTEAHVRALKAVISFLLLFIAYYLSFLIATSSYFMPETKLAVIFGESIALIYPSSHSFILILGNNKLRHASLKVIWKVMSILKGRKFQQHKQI
The series is described as follows: Calcium mobilization assay, TAS2R7 mutant E264K. It is filed as cell-based. The conditions noted are these: 20 mM metal ions except 0.16 mM Al2(SO4)3; cromolyn 10 mM; Figure 6B. The source says:
(§1) The coding sequences of human TAS2Rs were amplified from human genomic DNA, then subcloned into pcDNA3.1(+) vector, with the herpes simplex virus glycoprotein D epitope (HSV) at the C-terminal and a signal peptide consisting of the first 45 amino acid residues of the rat somatostatin receptor 3 at the N-terminal, essentially as described previously ([Bufe et al. 2002]). Point mutations in human TAS2R7 (NCBI Reference Sequence: NP_076408.1) were constructed by site-directed mutagenesis. All the constructs were confirmed by Sanger sequencing.
(§2) Human embryonic kidney 293 (PEAKrapid, ATCC # CRL-2828) cells were cultured in Opti-MEM medium with 4% fetal bovine serum. One day before transfection, cells were seeded on a 96-well plate at a density of 25 000 per well. Cells were then transiently transfected with a TAS2R construct (0.1 µg/well) along with a G protein Gα16-gust44 (0.1 µg/well) construct by Lipofectamine 2000 (0.5 µl/well). For controls, only Gα16-gust44 was used (mock transfection). Twenty-four hours after transfection, cells were washed with HBSS including 10 mM HEPES and loaded with Fluo-4 in the dark for 1 h. After incubation, cells were washed 2 times with HBSS (including 10 mM HEPES), incubated in the dark for another 30 min, and then washed with assay solution once more before running the assay using a FlexStation III reader. Relative fluorescence units (excitation at 494 nm, emission at 516 nm, and auto cutoff at 515 nm) were read every 2 s for 2 min. Calcium mobilization traces were recorded.
(§3) Calcium mobilization traces were raw data obtained from single wells. Changes in fluorescence (ΔF) were calculated as the peak fluorescence minus baseline fluorescence ([Lei et al. 2015]). The calcium mobilization was quantified as the percentage of change (ΔF) relative to baseline (F). […] Calcium mobilization traces and bar graphs along with dose-dependent plots were all generated by GraphPad Prism 7. Analysis of variance with Dunnett’s multiple comparisons test was used for statistical analysis. *P < 0.05.
To assess the importance of these residues, we performed site-directed mutagenesis. We mutated the negatively charged residues E16^1.42, E264^7.32, and E271^7.39 to Q (glutamine), K (lysine), or L (leucine). The facing H94^3.37 was mutated to F (phenylalanine). HEK293 cells that expressed mutant receptors along with Gα16-gust44 were examined for their responses to metal ions (20 mM for all except 0.16 mM Al2(SO4)3) and cromolyn (10 mM, as a positive control) to assess receptor’s function. To determine the expression level of each receptor, we stained the wild-type or mutant receptor-transfected cells using an anti-HSV antibody since all the receptors are tagged with HSV at c-terminal. […]

Series [2] relates to mock-transfected HEK293 cells (Gα16-gust44 only). The series is described as follows: Calcium mobilization assay, mock-transfected cells (Gα16-gust44 only). In kind it is cell-based, human. The conditions noted are these: any concentration tested (cromolyn 10 mM). Here is the method: as §2
Calcium mobilization traces were raw data obtained from single wells. Changes in fluorescence (ΔF) were calculated as the peak fluorescence minus baseline fluorescence ([Lei et al. 2015]). The calcium mobilization was quantified as the percentage of change (ΔF) relative to baseline (F). […] Calcium mobilization traces and bar graphs along with dose-dependent plots were all generated by GraphPad Prism 7. […]

For series [3], the target named is T2, human TAS2R7 E264^7.32L mutant (Homo sapiens, UniProt Q9NYW3, E264L).
T2 construct: signal peptide: first 45 amino acid residues of rat somatostatin receptor 3 (N); expressed in transfected cells; host or cells: HEK293 PEAKrapid (ATCC CRL-2828), transient, co-transfected with Gα16-gust44
T2 sequence (Q9NYW3 1-318 E264L): T1 sequence (Q9NYW3 1-318 E264K) with K264L
The series is described as follows: Calcium mobilization assay, TAS2R7 mutant E264L. As to conditions: 20 mM metal ions except 0.16 mM Al2(SO4)3; cromolyn 10 mM; Figure 6B. It is filed as cell-based.
Source text: as §1, §2
Calcium mobilization traces were raw data obtained from single wells. Changes in fluorescence (ΔF) were calculated as the peak fluorescence minus baseline fluorescence ([Lei et al. 2015]). The calcium mobilization was quantified as the percentage of change (ΔF) relative to baseline (F). […] Calcium mobilization traces and bar graphs along with dose-dependent plots were all generated by GraphPad Prism 7. Analysis of variance with Dunnett’s multiple comparisons test was used for statistical analysis. *P < 0.05. […]

The target of a further series is T3, human TAS2R7 (Homo sapiens, UniProt Q9NYW3).
T3 construct: first 45 residues of rat somatostatin receptor 3 (signal peptide) (N); expressed in transfected cells; host or cells: HEK293 (PEAKrapid, ATCC CRL-2828)
T3 sequence (Q9NYW3 1-318): T1 sequence (Q9NYW3 1-318 E264K) with K264E
The series is described as follows: Calcium mobilization assay, HEK293 cells transfected with TAS2R7 and Gα16-gust44. It is filed as cell-based. The conditions noted are these: for Activation of TAS2R7 by metal ions: 20 mM, Figure 1A,B; for Dose dependence of TAS2R7 response: Figure 2A,C.
Source text: as §1
All tested compounds were purchased from Sigma–Aldrich, with the exception of diphenidol hydrochloride (Reagent World) and L-praziquantel (manufactured by Shaoxing Pharmaceutical Co. Ltd.). All the metal ions were dissolved in the assay solution (130 mM NaCl, 5 mM KCl, 2 mM CaCl2, and 10 mM glucose; pH 7.4) unless specified otherwise, and the bitter compounds (diphenidol, quinine, and chlorphenamine) were dissolved first in dimethyl sulfoxide (DMSO) as stock solution and then diluted with the assay solution; the final DMSO concentration was below 0.5%, with the exception of cromolyn, which is dissolved in the assay solution directly. For our initial screening (Table 1), Hanks’ balanced salt solution (HBSS, ThermoFisher, catalog no. 14025134) supplemented with 10 mM hydroxyethyl piperazineethanesulfonic acid (HEPES) were used as the assay buffer.
as §2, §3
To determine whether a TAS2R responds to metal ions, we expressed all 25 human bitter receptors individually in HEK293 cells (PEAKrapid) by transient transfection of a TAS2R along with a coupling chimeric G protein, Gα16-gust44. All TAS2Rs were cloned from human genomic DNA. Activation of human TAS2Rs was monitored by the calcium mobilization assay ([Lei et al. 2015]). We tested these receptors individually for their responses toward metal ions: ZnSO4 (20 mM), CuSO4 (20 mM), and MgCl2 (20 mM) (Table 1, Figure 1A). […] To determine the breadth of tuning of TAS2R7 toward metal ions, we also tested MnCl2 (20 mM), Al2(SO4)3 ([…]), and CaCl2 (20 mM) (Figure 1B).

On the set-up of series [4]: method as in Lau et al. 1991. As to conditions: administered systemically, animal studies; ref Lau et al. 1991; cited from earlier work.
A further series relates to CaSR. The conditions noted are these: ref Spurney et al. 1999; cited from earlier work.
The next series addresses T4, human TAS2R14 (Homo sapiens, UniProt Q9NYV8).
T4 construct: first 45 residues of rat somatostatin receptor 3 (signal peptide) (N); expressed in transfected cells; host or cells: HEK293 (PEAKrapid, ATCC CRL-2828)
T4 sequence (Q9NYV8 1-317): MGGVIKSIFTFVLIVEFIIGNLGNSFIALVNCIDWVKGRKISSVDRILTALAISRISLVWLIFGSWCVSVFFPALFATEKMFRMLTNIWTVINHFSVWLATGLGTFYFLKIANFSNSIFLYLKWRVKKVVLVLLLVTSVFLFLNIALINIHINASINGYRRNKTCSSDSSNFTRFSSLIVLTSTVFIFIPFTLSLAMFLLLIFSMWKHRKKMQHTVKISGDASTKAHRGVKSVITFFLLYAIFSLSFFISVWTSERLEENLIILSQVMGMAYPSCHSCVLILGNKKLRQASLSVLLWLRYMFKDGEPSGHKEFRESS
The series is described as follows: Calcium mobilization assay, HEK293 cells transfected with TAS2R14 and Gα16-gust44. It is filed as cell-based. As to conditions: 0.5 mM; Figure 3B. The source says:
The coding sequences of human TAS2Rs were amplified from human genomic DNA, then subcloned into pcDNA3.1(+) vector, with the herpes simplex virus glycoprotein D epitope (HSV) at the C-terminal and a signal peptide consisting of the first 45 amino acid residues of the rat somatostatin receptor 3 at the N-terminal, essentially as described previously ([Bufe et al. 2002]). Point mutations in human TAS2R7 (NCBI Reference Sequence: NP_076408.1) were constructed by site-directed mutagenesis. All the constructs were confirmed by Sanger sequencing. […]
(§4) Human embryonic kidney 293 (PEAKrapid, ATCC # CRL-2828) cells were cultured in Opti-MEM medium with 4% fetal bovine serum. […] After incubation, cells were washed 2 times with HBSS (including 10 mM HEPES), incubated in the dark for another 30 min, and then washed with assay solution once more before running the assay using a FlexStation III reader. Relative fluorescence units (excitation at 494 nm, emission at 516 nm, and auto cutoff at 515 nm) were read every 2 s for 2 min. Calcium mobilization traces were recorded.
(§5) Calcium mobilization traces were raw data obtained from single wells. Changes in fluorescence (ΔF) were calculated as the peak fluorescence minus baseline fluorescence ([Lei et al. 2015]). The calcium mobilization was quantified as the percentage of change (ΔF) relative to baseline (F). […]

For series [5], the target named is T5, human TAS2R7 H94^3.37F mutant (Homo sapiens, UniProt Q9NYW3, H94F).
T5 construct: signal peptide: first 45 amino acid residues of rat somatostatin receptor 3 (N); expressed in transfected cells; host or cells: HEK293 PEAKrapid (ATCC CRL-2828), transient, co-transfected with Gα16-gust44
T5 sequence (Q9NYW3 1-318 H94F): T1 sequence (Q9NYW3 1-318 E264K) with H94F, K264E
Put plainly: Calcium mobilization assay, TAS2R7 mutant H94F. In kind it is cell-based. As to conditions: 20 mM metal ions except 0.16 mM Al2(SO4)3; Figure 6B.
Source text: as §1, §4, §5

The mark [6] stands for this setting: assay solution with 2 mM CaCl2, Figure 2, read-out: EC50, TAS2R7 concentration-response.

In the case of `O=S(=O)([O-])[O-].O=S(=O)([O-])[O-].O=S(=O)([O-])[O-].[Al+3].[Al+3]` [Al2(SO4)3, aluminum sulfate], the “Response of E264K mutant receptor” value in series [1] is recorded as “specific loss of responses”. Also, the “Response of mock-transfected cells” value in series [2] is reported as “no responses”. The “Response of E264L mutant receptor” value in series [3] was “insensitive”. The “Activation of TAS2R7 by metal ions” value on human TAS2R7 is “activated the receptor”. The “Dose dependence of TAS2R7 response” value on human TAS2R7 is given as “dose-dependent responses”. For the same compound, the EC50 worked out at 0.029 mM at human TAS2R7 (assay solution containing calcium, Figure 3A, read-out: EC50, TAS2R7, in the presence of calcium); 0.055 mM on human TAS2R7 (assay solution containing no calcium, Figure 3A, read-out: EC50, TAS2R7, in the absence of calcium); 0.039 ± 0.015 mM on human TAS2R7 (setting [6]). In series [4], the “Concentration reached in serum” value is 50 µM. Also, in the series with CaSR, the “Activity at CaSR” value is given as “weak agonist”.

Consider `O=C(C1CCCCC1)N1CC(=O)N2CCc3ccccc3[C@@H]2C1` [L-praziquantel], for which the “Response amplitude of TAS2R14 in the absence versus presence of calcium” value on human TAS2R14 is reported as “reduced response amplitude”.

In the case of `[Cl][Mn][Cl]` [MnCl2], the “Response of E264K mutant receptor” value in series [1] is recorded as “still responsive”. Besides, the “Activation of TAS2R7 by metal ions” value at human TAS2R7 is given as “activated the receptor”. On human TAS2R7, the “Dose dependence of TAS2R7 response” value is “dose-dependent responses”. For the same compound, the EC50 at human TAS2R7 (assay solution containing calcium, Figures 3A, 4C, read-out: EC50, TAS2R7, in the presence of calcium) was 2.24 mM; on human TAS2R7 (assay solution containing no calcium, Figures 3A, 4C, read-out: EC50, TAS2R7, in the absence of calcium), 7.19 mM; on human TAS2R7 (setting [6]) it was 6.59 ± 1.73 mM. Also, the “Response of H94F mutant receptor” value in series [5] is listed as “diminished responses”.
